Results as given in patent EP4417616A1, “LXR ANTAGONISTS” (Ospedale San Raffaele S.r.l., priority 2023, dated 2024).

Key:
IL-1β release = assay: IL-1β release; details: at early times after PFM037 treatment
[1] = test system: LXR target genes ABCA1, SREBP1c, FASN and SCD1; assay: Quantitative Real-Time-PCR of LXR target genes in PMA-differentiated U937 cells; format: cell-based, human; details: U937 differentiated with PMA 72 hours; PFM037 50, 25 and 10 µM, 16 hours
Description: Reporter assay for nuclear receptor transcriptional activity. Human embryonic Kidney 293 cells (American Type Culture Collection) were cultured in Dulbecco's Modified Eagle's medium containing 10% of fetal bovine serum at 37°C in humidified atmosphere of 5% CO2. HEK293 cells (4×10^4 cells per well) were transiently transfected in 48 well plate with the reporter plasmids pMH100X4-TK-luc (100 ng/300µl), Renilla (22 ng/300µl) together with 100 ng/300µl of pCMX-Gal4-LXRα or pCMX-Gal4-LXRβ plasmids using X-tremeGENE 9 DNA Transfection Reagent (Roche). Six hours after transfection, the cells were treated with the appropriate compound for 24 hours. Luciferase activities were analyzed by luciferase Dual Reporter Assay Systems (Promega) according to the manufacturer's protocol. GAL4-LXRs, and TK-MHC100-luc plasmids were described in^7. For mammalian two-hybrid assays the human liver cell line Hhu7 (American Type Culture Collection) was transiently transfected with the reporter plasmids p5xUAS-tk-Luc (100 ng/300µl) together with pGAL4-RAP250-Del4 (133 ng/300µl), described in^39, and either of pVP16-LXRα-LBD or pVP16-LXRβ-LBD plasmids (133 ng/300µl), described in^40, using the jetPrime transfection reagent (Polyplus). Six hours after transfection, the cells were treated with the appropriate compound for 40 hours. Luciferase activity was analyzed as described above and protein content spectrophotometrically using Coomassie Plus Protein assay reagent (Thermo Scientific). Quantitative Real-Time-PCR. U937 cell line was differentiated in foam macrophages with phorbol 12-myristate 13-acetate (PMA) 10 ng/ml (Sigma) for 72 hours at 37°C in RPMI 10% FBS. At day 3 T0901317 (10 µM) or different amount of PFM037 (50, 25 and 10 µM) were added for 16 hours. Total RNA was purified by TRIZOL (Invitrogen). Reverse transcription was performed by MLV-reverse transcriptase (Promega). QPCR was performed using SYBR Green Master Mix (Applied Biosystems) and real-time PCR (Viia 7 Real Time PCR System, Applied Biosystems). PCR reactions were done in triplicate. The comparative Ct method was used to quantify transcripts that were normalized for human GAPDH. The following primer pairs were used: • GAPDH-F 5'-ACATCATCCCTGCCTCTACTG-3' (SEQ ID No. 1); • GAPDH-R 5'-ACCACCTGGTGCTCAGTGTA-3'(SEQ ID No. 2); • ABCA1-F 5'-CCA GGC CAG TAC GGA ATT C-3' (SEQ ID No. 3); • ABCA1-R 5'-CCT CGC CAA ACC AGT AGG A-3' (SEQ ID No. 4); • SREBP-1c-F 5'-GGC GGG CGC AGA TC-3' (SEQ ID No. 5); • SREBP-1c-R 5'-TTGTTGATAAGCTGAAGCATGTCT-3' (SEQ ID No. 6); • FAS F 5'-ACA GCG GGG AAT GGG TAC T-3'(SEQ ID No. 7); • FAS R 5'-GACTGGTACAACGAGCGGAT-3' (SEQ ID No. 8); • SCD1-F 5'-TTCAGAAACACATGCTGATCCTCATAATTC-3' (SEQ ID No. 9); • SCD1-R 5'-ATTAAGCACCACAGCATATCGCAAGAAAGT-3'(SEQ ID No. 10)

OT-I T cells = assay: In vitro differentiation and expansion of activated OT-I T cells by IL-7/IL15; format: cell-based, mouse
Description: . Forty-eight hours later the cells were differentiated and expanded by IL-7/IL15 (5ng/ml both cytokines) with or without PFM037. Ten, 12 and 15 days later, FACS analysis was performed to evaluate their differentiation status. […]. Then, mice bearing MC-38-OVA-liver metastases were treated with vehicle, or OT-I T cells expanded with IL-2 (effectors), or IL-7/IL15 with or without PFM037. Tumor-bearing mice injected with vehicle were all dead 40 days after tumor injection. Twenty percent of tumor-bearing mice treated with OT-I T cells expanded with IL-2 were alive at 60 days, whereas 50% and 80% of tumor-bearing mice treated with IL-7/IL15 with or without PFM037, respectively, were alive at 60 days (Fig. 20). […].

[2] = test system: MC38-GFP colon cancer cells; assay: Liver metastasis model, intramesenteric injection of MC38-GFP cells; details: 400 µg, 3 days/week for 2 weeks; 21 days after tumor challenge; vs vehicle
Description: Macroscopic liver tumor quantification and Immunohistochemistry. At time of autopsy, visible macroscopic tumors were counted, and each liver macroscopically photographed. Livers were then perfused with PBS, harvested and different pieces were sampled, fixed in zinc-formalin and embedded in paraffin for hematoxylin/eosin or immunohistochemical analysis as described^62. Immunohistochemical staining was performed using a Bond RX Automated Immunohistochemistry system (Leica Microsystems GmbH, Wetzlar, Germany) on 3-µm-thick sections. First, tissues were deparaffinized and pre-treated with the Epitope Retrieval Solution [ER1 Citrate Buffer for GFP (dilution 1:500, GFP Polyclonal Antibody, Thermo Fisher Scientific, Cat# A11122, RRID:AB_221569). After washing steps, peroxidase blocking was carried out for 10 min using the Bond Polymer Refine Detection Kit DS9800 (Leica Microsystems GmbH). Then, tissues were washed and incubated for 1h RT with the primary antibody diluted in IHC Antibody Diluent (Novocastra, Leica RE7133). Subsequently, tissues were incubated with polymer-HRP (Biocare Medical, RT517H), developed with DAB-Chromogen for 10 minutes and counterstained with Hematoxilin for 5 minutes. For image acquisition and analysis eSlide Manager (Aperio Leica Biosystems) was used. All images were acquired using the Aperio AT2 system (Leica Biosystems). […]

[3] = OT-I T cells expanded by IL-7/IL15 with PFM037, FACS at 10, 12 and 15 days

## CC(C)CC[C@H](O)[C@@H](C)[C@H]1CC[C@H]2[C@@H]3CC=C4C[C@@H](OS(=O)(=O)[O-])CC[C@]4(C)[C@H]3CC[C@]12C.[Na+] [PFM037, 22(S)-Hydroxycholesterol-3-sulfate sodium salt]
IL-1β release
  IL-1β release: no difference
[1]
  ABCA1 transcripts: no activation
  FASN mRNA expression: inhibition
  SCD1 mRNA expression: inhibition
  SREBP-1c mRNA expression: inhibition
OT-I T cells; [3]
  CD39 and CD69 markers: progressively lost
  CD62L and CD44low markers: progressively acquiring
OT-I T cells; T cells expanded by IL7 and IL15 in the presence of PFM037
  stemness markers Sca1, Tcf1 and CXCR3: higher levels
[2]
  tumor area: reduced
  tumor nodules (macroscopic liver tumor lesions): much less
